The record followed here is ChEMBL document CHEMBL1201862, “PubChem BioAssay data set” (2004).

Assay [1] deals with T1, Bcl-2-like protein 10 (Homo sapiens, UniProt Q9HD36).
T1 sequence (Q9HD36 whole entry): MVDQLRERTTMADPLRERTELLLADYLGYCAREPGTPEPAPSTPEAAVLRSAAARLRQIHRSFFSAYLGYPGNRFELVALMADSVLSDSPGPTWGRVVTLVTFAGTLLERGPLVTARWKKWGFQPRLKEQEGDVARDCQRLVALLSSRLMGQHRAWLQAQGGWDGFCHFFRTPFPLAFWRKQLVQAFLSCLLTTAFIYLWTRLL
Put plainly: displacers of TR3 peptide from Bcl-B, primary screen, selectivity assay for Bfl-1 inhibitor project, biochemical, fluorescence polarization, FITC-TR3 peptide (AID 748).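 Note: fluorescence polarization from a fluorescein-labelled TR3 peptide binding purified Bcl-B.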

Assay [2] addresses Protein Tat (Human immunodeficiency virus type 1 group M subtype B (isolate HXB2)(HIV-1), UniProt P04608). It counts as functional.
The target in assay [3] is Glutathione-S-transferase (Schistosoma japonicum, UniProt Q26513). Put plainly: biotin-GST/anti-GST TR-FRET signal inhibitors, dose response, artefact control for Vif-APOBEC3G degradation inhibitor project, biochemical (AID 1117362). It counts as functional. Background: Time-resolved FRET reads energy transfer from a long-lived donor to a nearby acceptor.
Glutathione-S-transferase, sequence (Q26513 whole entry): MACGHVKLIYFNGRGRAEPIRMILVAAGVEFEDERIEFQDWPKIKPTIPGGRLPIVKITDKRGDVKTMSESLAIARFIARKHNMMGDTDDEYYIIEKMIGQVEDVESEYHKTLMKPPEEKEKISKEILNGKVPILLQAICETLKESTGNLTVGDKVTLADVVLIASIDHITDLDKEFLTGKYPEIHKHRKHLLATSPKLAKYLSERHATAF
Assay [4] is described as follows: A549 cell cytotoxicity, dose response, cytotoxicity control, cherry-picks, 26 µM top dose (AID 1053119). The class given is functional, cell-based.
Assay [5] in a line: HepG2 cell cytotoxicity, dose response, cytotoxicity control, cherry-picked samples (AID 1159577). It counts as functional, cell-based.
The nature of assay [6]: P. falciparum Dd2 growth inhibitors, dose response, SYBR Green, cherry-picked samples (AID 1159567). The class given is functional, cell-based.
Assay [7] in a line: fibronectin fibrillogenesis inhibitors in fibroblasts, dose response, AH1F cells, Alexa488-fibronectin fluorescence, cherry-pick, set 2 (AID 1117283). It counts as functional, cell-based.
Assay [8] is described as follows: TB: CFU replicating Measured in Microorganism System Using Imaging - 7108-05_Inhibitor_Dose_DryPowder_Activity_Set2. The class given is functional.
The nature of assay [9]: A549 cell cytotoxicity, dose response, CellTiter-Glo luminescence, dry powder, set 17 (AID 1117284). It counts as functional, cell-based. For orientation: In ATP-based viability assays light output follows the ATP content of the culture.
Assay [10] can be described thus: inhibitors of orthopox intermediate gene expression, dose response, cell-based, single fluorophore reporter, dry powder (AID 1117271). It counts as functional.
Assay [11] is described as follows: Single fluorophore orthopox expression reporter, late gene expression Measured in Cell-Based and Microorganism Combination System Using Plate Reader - 2142-08_Inhibitor_Dose_DryPowder_Activity. It counts as functional.
Assay [12] in a line: P. falciparum Dd2 growth inhibitors, dose response, SYBR Green, dry powder samples, set 9 (AID 1159568). It counts as functional, cell-based.
Assay [13] can be described thus: HEK293T cell cytotoxicity, dose response, cytotoxicity control, plate reader, dry powder, set 10 (AID 743315). It counts as functional, cell-based. The following applies: HEK293.
The nature of assay [14]: C. neoformans growth inhibition with sorbitol, dose response, mechanism study for C. neoformans lysis project, alamar blue, dry powder, set 3 (AID 743304). It counts as functional, organism-based. (In general: Resazurin is reduced to fluorescent resorufin, in cell work by metabolically active cells.)
A short description of assay [15]: P. falciparum Dd2 blood-stage growth inhibition, dose response, SYBR Green fluorescence, erythrocytes, dry powder, set 2 (AID 1159574). It counts as functional, cell-based.
Assay [16] can be described thus: SNU-C1 cell viability reduction, dose response, CellTiter-Glo luminescence (AID 1117323). The class given is functional, cell-based.
Assay [17] is described as follows: cytotoxicity toward HT-29 cells – cell-based, CellTiter-Glo luminescence, IC50, dose response (AID 1117330). It counts as functional.
The nature of assay [18]: CellTiter-Glo luminescent dose response of DLD-1 viability loss (AID 1117352). It counts as functional.
Assay [19] in a line: Concentration-dependent survival of SW480 colon cancer line, luminescence detection with CellTiter-Glo, half-maximal inhibitory concentration (AID 1117338). It counts as functional.
Assay [20] is described as follows: cytotoxicity toward HCT116 cells – cell-based, CellTiter-Glo luminescence, IC50, dose response (AID 1117332). The class given is functional. The following applies: HCT-116.
Assay [21] can be described thus: RKO cell viability reduction, dose response, CellTiter-Glo luminescence (AID 1117322). The class given is functional.

The source made the active and inactive calls. Unless noted, no cut-off for these calls is given here.

Protein Tat, sequence (P04608 whole entry): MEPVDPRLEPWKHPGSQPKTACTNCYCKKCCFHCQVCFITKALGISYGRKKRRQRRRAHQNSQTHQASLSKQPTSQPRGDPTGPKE

As usually defined, the IC50 is the concentration that inhibits the measured activity by half. As to `O=C1c2ccccc2CC1Sc1nnc(-c2ccccn2)o1` (stereo unspecified), the figures for the IC50 in assay [1] and in assay [2] were > 100 µM (inactive) and > 100 µM (active), respectively.
`O=C(O)c1ccc(S(=O)(=O)c2ccc([N+](=O)[O-])cc2[N+](=O)[O-])cc1`: the IC50 in [3] is > 100 µM (active).
Broadly, the AC50 is the concentration giving half of the maximal activity seen. Turning to `C[C@@H]1CN([C@@H](C)CO)C(=O)c2cccc(NC(=O)Nc3ccc(C(F)(F)F)cc3)c2O[C@H]1CN(C)C(=O)Nc1cccc2ccccc12`, the AC50 was > 52 µM (inactive) in assay [4], > 39 µM (inactive) in [5], 7.88 µM (active) in assay [6] and > 70 µM (inactive) in assay [7].
`Cn1c(NC(=O)c2ccccn2)nc2ccccc21` yielded an AbsAC90 in assay [8] of 274.28 µM.
With `C[C@@H](O)C#Cc1ccc2c(c1)O[C@@H](CN(C)Cc1ccc(-c3cccc(Cl)c3)cc1)[C@@H](C)CN([C@@H](C)CO)S2(=O)=O`, the AC50 in assay [9] was 51.5 µM (active); in [10] it was 3.58 µM (active); in assay [11] it was 2.54 µM (active).
Regarding `CCCNC(=O)N1[C@H](C#N)[C@@H](c2ccccc2-c2cccc(C)c2)[C@@H]1CO`, in assay [12], the AC50 is 10.2 µM (active).
`CSc1nc2ccccc2n1CCOc1cc(C)ccc1C(C)C`: the AC50 is > 52 µM (inactive) in assay [13] and 41.6 µM (active) in assay [14].
For `COc1ccc(NC(=O)N2CCCCN3[C@H](CO)[C@@H](c4ccc(C#Cc5ccccc5)cc4)[C@H]3C2)cc1`, the AC50 in assay [15] was 4.04 µM (active).
With `[N-]=[N+]=CC(=O)OC[C@H](N)C(=O)O` [AZASERINE], the IC50 in assay [16], in assay [17], in assay [18], in assay [19], in assay [20] and in assay [21] was > 20 µM (inactive) throughout.
